# Test results taken from patent US9611277B2 (Janssen Pharmaceutica NV, priority 2013, dated 2017).
# Legend:
# rat orexin 1 receptor = rat orexin 1 receptor (Rattus norvegicus, UniProt P56718); assay: Rat orexin 1 receptor radioligand binding; conditions: rat orexin 1 receptor; averages of 2-20 runs; read-out: rOX1 Ki
# Outline: (§1)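 Competition binding with the tritiated thiazolyl-pyrrolidinyl-methanone radioligand in PBS on homogenized rat or human OX1R-expressing cell suspensions, ≤0.1% DMSO; nonspecific binding defined with 10 μM almorexant. Bound radioactivity read by scintillation after filtration; IC50 from one-site competition fit, converted to Ki using pre-determined radioligand Kd.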
# human orexin 2 receptor = human orexin 2 receptor (Homo sapiens (Human), UniProt O43614); assay: Human orexin 2 receptor radioligand binding; conditions: read-out: hOX2 Ki
# Outline: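 HEK293 cells stably expressing human OX2 receptor, homogenized, incubated with [3H]-EMPA and compounds (DMSO ≤0.1%); nonspecific binding with 10 μM almorexant. Filter-bound radioactivity counted by scintillation; IC50 from one-site competition fit of triplicates, Ki from IC50 and predetermined radioligand Kd, averaged over 2-20 runs.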
# human orexin 1 receptor = human orexin 1 receptor (Homo sapiens, UniProt O43613); assay: Human orexin 1 receptor radioligand binding; conditions: human orexin 1 receptor; averages of 2-20 runs; read-out: hOX1 Ki
# Outline: as §1
# Chain of human orexin 2 receptor (O43614 whole entry): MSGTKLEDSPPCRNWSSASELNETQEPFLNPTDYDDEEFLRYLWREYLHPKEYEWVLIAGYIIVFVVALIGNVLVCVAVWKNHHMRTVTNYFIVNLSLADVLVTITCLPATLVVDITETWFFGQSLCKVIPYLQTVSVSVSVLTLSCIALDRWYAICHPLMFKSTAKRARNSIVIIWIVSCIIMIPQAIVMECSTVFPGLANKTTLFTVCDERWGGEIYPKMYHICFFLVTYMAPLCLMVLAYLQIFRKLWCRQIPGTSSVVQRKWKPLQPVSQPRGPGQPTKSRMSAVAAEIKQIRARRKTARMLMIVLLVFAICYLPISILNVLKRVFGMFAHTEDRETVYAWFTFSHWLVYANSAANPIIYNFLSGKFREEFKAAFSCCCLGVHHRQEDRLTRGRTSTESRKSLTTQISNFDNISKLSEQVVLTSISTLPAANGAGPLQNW
substance,measurement,setting,value
"((1S,4S,6R)-6-((5-chloropyrimidin-2-yl)amino)-2-azabicyclo[2.2.1]heptan-2-yl)(5-fluoro-2-(pyrimidin-2-yl)phenyl)methanone [Example 238]",Ki,rat orexin 1 receptor,20 nM
same,Ki,human orexin 2 receptor,991 nM
same,Ki,human orexin 1 receptor,8 nM
